The text below walks through data of the supplement of paper PMC12137928.

Structures can show the parent of a compound that is named as a salt.

The test system of this experiment is HCT116. As to conditions: 72 h. The procedure, abridged:
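After seeding at 250 cells per well in 1536-well plates, HCT116 cells were given 5 h to attach. CellTiter-Glo luminescence, scaled to 0% for vehicle and -100% for positive control, was pattern-corrected. Fitting with a four-parameter Hill model produced IC50 and maximal efficacy.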

The compound `O=C(CCBr)N1CCN(C(=O)CCBr)CC1` [Pipobroman] registered an IC50 cell viability (ICRF193 0 nM) of more than 45.8 µM and an IC50 cell viability (ICRF193 200 nM) of more than 45.8 µM.
`Cc1ccc(NC(=O)c2ccc(CN3CCN(C)CC3)cc2)cc1Nc1nccc(-c2cccnc2)n1` [Imatinib] had an IC50 cell viability (ICRF193 0 nM) of more than 45.8 µM and an IC50 cell viability (ICRF193 200 nM) of more than 45.8 µM.
`CC(=O)OCC1=C(C(=O)O)N2C(=O)[C@@H](NC(=O)CSc3ccncc3)[C@H]2SC1` [Cephapirin sodium] registered an IC50 cell viability (ICRF193 0 nM) of more than 45.8 µM and an IC50 cell viability (ICRF193 200 nM) of more than 45.8 µM.
With `CC(=O)c1ccc(S(=O)(=O)NC(=O)NC2CCCCC2)cc1` [Acetohexamide], the IC50 cell viability is more than 45.8 µM (ICRF193 0 nM) and more than 45.8 µM (ICRF193 200 nM).
Take `C[C@@H]1NC(=O)[C@@H]2CCCN2C(=O)[C@H](CC(N)=O)NC(=O)[C@@H]2CSSC[C@H](N)C(=O)N[C@H]3CSSC[C@H](NC1=O)C(=O)N[C@@H]([C@@H](C)O)C(=O)NCC(=O)N[C@H](C(=O)N[C@@H](Cc1ccc(O)cc1)C(=O)O)CSSC[C@H](NC(=O)[C@H](Cc1ccc(O)cc1)NC(=O)[C@H](CCC(=O)O)NC3=O)C(=O)N2` [LINACLOTIDE (1 mg/ml)]: the IC50 cell viability (ICRF193 0 nM) is more than 45.8 µM and the IC50 cell viability (ICRF193 200 nM) is more than 45.8 µM.
On to `CCCCC(=O)O[C@]1(C(=O)CO)CC[C@H]2[C@@H]3CCC4=CC(=O)CC[C@]4(C)[C@H]3[C@@H](O)C[C@@]21C` [Hydrocortisone valerate], for which the IC50 cell viability is more than 45.8 µM (ICRF193 0 nM) and more than 45.8 µM (ICRF193 200 nM).
`CC[C@H]1OC(=O)[C@H](C)C(=O)[C@H](C)[C@@H](O[C@@H]2O[C@H](C)C[C@H](N(C)C)[C@H]2O)[C@](C)(OC)C[C@@H](C)C(=O)[C@H](C)[C@H]2N(CCCCn3cnc(-c4cccnc4)c3)C(=O)O[C@]12C` [TELITHROMYCIN]: the IC50 cell viability by setting is: (ICRF193 0 nM) more than 45.8 µM; (ICRF193 200 nM) more than 45.8 µM.
Turning to `COC(=O)c1ccccc1O` [Methyl salicylate], the IC50 cell viability is, setting by setting: (ICRF193 0 nM) more than 45.8 µM; (ICRF193 200 nM) more than 45.8 µM.
Take `CC(=O)OCC(COC(C)=O)OC(C)=O` [Triacetin]: the IC50 cell viability (ICRF193 0 nM) is more than 45.8 µM and the IC50 cell viability (ICRF193 200 nM) is more than 45.8 µM.
For `CN1CCOC(c2ccccc2)c2ccccc2C1` (configuration not stated) [Nefopam hydrochloride], the IC50 cell viability runs as follows: (ICRF193 0 nM) more than 45.8 µM; (ICRF193 200 nM) more than 45.8 µM.
For the compound `CN(C)CCOC1=Cc2ccccc2Sc2ccc(Cl)cc21` [Zotepine], the IC50 cell viability is more than 45.8 µM (ICRF193 0 nM) and more than 45.8 µM (ICRF193 200 nM).
In the case of `Nc1ccc(S(=O)(=O)Nc2ccc(Cl)nn2)cc1` [Sulfachloropyridazine], the IC50 cell viability runs as follows: (ICRF193 0 nM) more than 45.8 µM; (ICRF193 200 nM) more than 45.8 µM.
As to `COC(=O)N[C@H](C(=O)N[C@@H](Cc1ccccc1)[C@@H](O)CN(Cc1ccc(-c2ccccn2)cc1)NC(=O)[C@@H](NC(=O)OC)C(C)(C)C)C(C)(C)C` [Atazanavir], the IC50 cell viability runs as follows: (ICRF193 0 nM) more than 45.8 µM; (ICRF193 200 nM) more than 45.8 µM.
In the case of `CC(=O)CC(c1ccccc1)c1c(O)c2ccccc2oc1=O` (configuration not stated) [Warfarin sodium], the IC50 cell viability was more than 45.8 µM (ICRF193 0 nM) and more than 45.8 µM (ICRF193 200 nM).
As for `CC(N)C(O)c1ccccc1` (configuration not stated) [Phenylpropanolamine hydrochloride], the IC50 cell viability reads like this: (ICRF193 0 nM) more than 45.8 µM; (ICRF193 200 nM) more than 45.8 µM.
Regarding `Cc1cccc(C)c1N(CCCc1cccnc1)C(=O)C(C)N` (configuration not stated) [Ro 22-9194], the IC50 cell viability was more than 45.8 µM (ICRF193 0 nM) and more than 45.8 µM (ICRF193 200 nM).
Consider `CC(C)(C(=O)O)c1ccc(C(O)CCCN2CCC(C(O)(c3ccccc3)c3ccccc3)CC2)cc1` (configuration not stated) [Fexofenadine hydrochloride], for which the IC50 cell viability reads like this: (ICRF193 0 nM) more than 45.8 µM; (ICRF193 200 nM) more than 45.8 µM.
With `COc1ccc(O)cc1` [4-Methoxyphenol], the IC50 cell viability (ICRF193 0 nM) is more than 45.8 µM and the IC50 cell viability (ICRF193 200 nM) was more than 45.8 µM.
Compound `NC(=O)c1ncn([C@@H]2O[C@H](CO)[C@@H](O)[C@H]2O)c1O` [Mizoribine] yielded an IC50 cell viability (ICRF193 0 nM) of more than 45.8 µM and an IC50 cell viability (ICRF193 200 nM) of more than 45.8 µM.
With `O=C(O)CCc1nc(-c2ccccc2)c(-c2ccccc2)o1` [Oxaprozin], the IC50 cell viability runs as follows: (ICRF193 0 nM) more than 45.8 µM; (ICRF193 200 nM) more than 45.8 µM.
With `CC1Cc2ccccc2N1NC(=O)c1ccc(Cl)c(S(N)(=O)=O)c1` (configuration not stated) [Indapamide], the IC50 cell viability is more than 45.8 µM (ICRF193 0 nM) and more than 45.8 µM (ICRF193 200 nM).
In the case of `Nc1ccn([C@H]2CC[C@@H](CO)O2)c(=O)n1` [2',3'-Dideoxycytidine], the IC50 cell viability reads like this: (ICRF193 0 nM) more than 45.8 µM; (ICRF193 200 nM) more than 45.8 µM.
As to `CC(C)COC(=O)OCN1C(=O)CN(CCN2CC(=O)N(COC(=O)OCC(C)C)C(=O)C2)CC1=O` [Sobuzoxane], the IC50 cell viability by setting is: (ICRF193 0 nM) more than 45.8 µM; (ICRF193 200 nM) more than 45.8 µM.
For the compound `Nc1ccn(C[C@@H](CO)OCP(=O)(O)O)c(=O)n1` [Cidofovir], the IC50 cell viability runs as follows: (ICRF193 0 nM) more than 45.8 µM; (ICRF193 200 nM) more than 45.8 µM.
For `CCCCOC(=O)C(=O)Nc1cccc(-c2nnn[nH]2)c1` [Tazanolast], the IC50 cell viability is more than 45.8 µM (ICRF193 0 nM) and more than 45.8 µM (ICRF193 200 nM).
For `CC(=O)N(CC(C)C(=O)O)c1c(I)cc(I)c(N)c1I` (configuration not stated) [Iocetamic acid], the IC50 cell viability (ICRF193 0 nM) was more than 45.8 µM and the IC50 cell viability (ICRF193 200 nM) was more than 45.8 µM.
